Source: patent publication US7378375B1, “Substituted pyridine herbicides” (Syngenta Crop Protection, Inc., priority 2000, dated 2008)

What was measured:
[1] = system: Monocotyledonous and dicotyledonous test plants; assay: Herbicidal action before emergence of the plants (pre-emergence action), greenhouse pot test, 9-level rating after 4 weeks; format: in vivo; design: key: 9-level scale: 1 = complete damage, 9 = no effect; conditions: 250 g/ha, rated after 4 weeks, 9-level scale
Procedure, shortened: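 Compounds applied pre-emergence as a spray (500 l water/ha) of aqueous suspension or emulsion onto soil immediately after sowing mono- and dicot species in pots. Greenhouse-grown; damage rated after 4 weeks on a 9-level scale (1=complete damage, 9=no effect).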

[2] = system: Monocotyledonous and dicotyledonous test plants; assay: Post-emergence herbicidal action, greenhouse pot test, sprayed at the 2- to 3-leaf stage, 9-level rating after 2 to 3 weeks; format: in vivo; design: key: 9-level scale: 1 = complete damage, 9 = no effect; conditions: 250 g/ha, rated after 2 to 3 weeks, 9-level scale
Procedure, shortened: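 Plants grown in standard soil in pots; test substances sprayed at the 2- to 3-leaf stage at optimum dosage (500 l water/ha) as aqueous suspension or emulsion from formulated concentrates. Plants then kept in the greenhouse under optimum conditions; rated after 2 to 3 weeks on a 9-level scale (1=complete damage, 9=no effect).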

O=C(C1=C(O)C2CCC(C2)C1=O)c1ccc(C(F)(F)F)nc1COCC(F)(F)F (centres unmarked) [A834-B52]
Pre-emergence action rating, Abutilon [1]: 1 | Pre-emergence action rating, Amaranthus [1]: 2 | Pre-emergence action rating, Chenop. [1]: 1 | Pre-emergence action rating, Digitaria [1]: 1 | Pre-emergence action rating, Echino. [1]: 1 | Pre-emergence action rating, Panicum [1]: 1 | Post-emergence action rating, Abutilon [2]: 2 | Post-emergence action rating, Amaranth [2]: 1 | Post-emergence action rating, Chenop. [2]: 1 | Post-emergence action rating, Digitaria [2]: 1 | Post-emergence action rating, Echino. [2]: 2 | Post-emergence action rating, Ipopur. [2]: 2 | Post-emergence action rating, Panicum [2]: 1 | Post-emergence action rating, Xanth. [2]: 2

COCc1nc(C(F)(F)F)ccc1C(=O)c1c(C)nn(C)c1O [A1-C2]
Pre-emergence action rating, Abutilon [1]: 4 | Pre-emergence action rating, Amaranthus [1]: 3 | Pre-emergence action rating, Chenop. [1]: 1 | Pre-emergence action rating, Digitaria [1]: 3 | Pre-emergence action rating, Echino. [1]: 3 | Pre-emergence action rating, Panicum [1]: 6 | Post-emergence action rating, Abutilon [2]: 3 | Post-emergence action rating, Amaranth [2]: 2 | Post-emergence action rating, Chenop. [2]: 4 | Post-emergence action rating, Digitaria [2]: 8 | Post-emergence action rating, Echino. [2]: 4 | Post-emergence action rating, Ipopur. [2]: 3 | Post-emergence action rating, Panicum [2]: 7 | Post-emergence action rating, Xanth. [2]: 4

COCCOCc1nc(C(F)(F)F)ccc1C(=O)c1cnn(C)c1OS(=O)(=O)c1ccc(C)cc1 [A10-C29]
Pre-emergence action rating, Abutilon [1]: 1 | Pre-emergence action rating, Amaranthus [1]: 1 | Pre-emergence action rating, Digitaria [1]: 2 | Pre-emergence action rating, Echino. [1]: 1 | Pre-emergence action rating, Panicum [1]: 2 | Post-emergence action rating, Abutilon [2]: 2 | Post-emergence action rating, Amaranth [2]: 2 | Post-emergence action rating, Chenop. [2]: 1 | Post-emergence action rating, Digitaria [2]: 3 | Post-emergence action rating, Echino. [2]: 3 | Post-emergence action rating, Ipopur. [2]: 1 | Post-emergence action rating, Panicum [2]: 2 | Post-emergence action rating, Xanth. [2]: 2

COCCCOCc1nc(C(F)(F)F)ccc1C(=O)C1=C(O)C2CCC(C2)C1=O (centres unmarked) [A846-B52]
Pre-emergence action rating, Abutilon [1]: 2 | Pre-emergence action rating, Amaranthus [1]: 1 | Pre-emergence action rating, Chenop. [1]: 1 | Pre-emergence action rating, Digitaria [1]: 1 | Pre-emergence action rating, Echino. [1]: 1 | Pre-emergence action rating, Panicum [1]: 1 | Post-emergence action rating, Abutilon [2]: 2 | Post-emergence action rating, Amaranth [2]: 2 | Post-emergence action rating, Chenop. [2]: 2 | Post-emergence action rating, Digitaria [2]: 2 | Post-emergence action rating, Echino. [2]: 2 | Post-emergence action rating, Ipopur. [2]: 1 | Post-emergence action rating, Panicum [2]: 1 | Post-emergence action rating, Xanth. [2]: 2

O=C(C1=C(O)C2CCC(C2)C1=O)c1ccc(C(F)(F)F)nc1COCCCl (centres unmarked) [A850-B52]
Pre-emergence action rating, Abutilon [1]: 1 | Pre-emergence action rating, Amaranthus [1]: 2 | Pre-emergence action rating, Chenop. [1]: 1 | Pre-emergence action rating, Digitaria [1]: 2 | Pre-emergence action rating, Echino. [1]: 1 | Pre-emergence action rating, Panicum [1]: 1 | Post-emergence action rating, Abutilon [2]: 2 | Post-emergence action rating, Amaranth [2]: 2 | Post-emergence action rating, Chenop. [2]: 1 | Post-emergence action rating, Digitaria [2]: 2 | Post-emergence action rating, Echino. [2]: 2 | Post-emergence action rating, Ipopur. [2]: 2 | Post-emergence action rating, Panicum [2]: 2 | Post-emergence action rating, Xanth. [2]: 2

COCCOCc1c(C(=O)C2=C(O)C3CCC(C3)C2=O)ccc(C(F)(F)F)[n+]1[O-] (centres unmarked) [A736-B52]
Pre-emergence action rating, Abutilon [1]: 1 | Pre-emergence action rating, Amaranthus [1]: 1 | Pre-emergence action rating, Chenop. [1]: 1 | Pre-emergence action rating, Digitaria [1]: 4 | Pre-emergence action rating, Echino. [1]: 2 | Pre-emergence action rating, Panicum [1]: 1 | Post-emergence action rating, Abutilon [2]: 1 | Post-emergence action rating, Amaranth [2]: 1 | Post-emergence action rating, Chenop. [2]: 1 | Post-emergence action rating, Digitaria [2]: 1 | Post-emergence action rating, Echino. [2]: 2 | Post-emergence action rating, Ipopur. [2]: 2 | Post-emergence action rating, Panicum [2]: 1 | Post-emergence action rating, Xanth. [2]: 2

CC(=O)OCc1nc(C(F)(F)F)ccc1C(=O)C1=C([O-])C2CCC(C2)C1=O.[K+] (centres unmarked) [A833-B52 (K+)]
Pre-emergence action rating, Abutilon [1]: 1 | Pre-emergence action rating, Amaranthus [1]: 2 | Pre-emergence action rating, Chenop. [1]: 1 | Pre-emergence action rating, Digitaria [1]: 2 | Pre-emergence action rating, Echino. [1]: 2 | Pre-emergence action rating, Panicum [1]: 1 | Post-emergence action rating, Abutilon [2]: 3 | Post-emergence action rating, Amaranth [2]: 3 | Post-emergence action rating, Chenop. [2]: 3 | Post-emergence action rating, Digitaria [2]: 3 | Post-emergence action rating, Echino. [2]: 4 | Post-emergence action rating, Ipopur. [2]: 3 | Post-emergence action rating, Panicum [2]: 3 | Post-emergence action rating, Xanth. [2]: 2

COCOCc1nc(C(F)(F)F)ccc1C(=O)C1=C(O)C2CCC(C2)C1=O (centres unmarked) [A8-B52]
Pre-emergence action rating, Abutilon [1]: 1 | Pre-emergence action rating, Amaranthus [1]: 1 | Pre-emergence action rating, Digitaria [1]: 1 | Pre-emergence action rating, Echino. [1]: 1 | Pre-emergence action rating, Panicum [1]: 1 | Post-emergence action rating, Abutilon [2]: 1 | Post-emergence action rating, Amaranth [2]: 1 | Post-emergence action rating, Chenop. [2]: 1 | Post-emergence action rating, Digitaria [2]: 1 | Post-emergence action rating, Echino. [2]: 1 | Post-emergence action rating, Ipopur. [2]: 1 | Post-emergence action rating, Panicum [2]: 1 | Post-emergence action rating, Xanth. [2]: 2

CC(C)(C)C(=O)OCc1nc(C(F)(F)F)ccc1C(=O)C1=C(O)C2CCC(C2)C1=O (centres unmarked) [A839-B52]
Pre-emergence action rating, Abutilon [1]: 1 | Pre-emergence action rating, Amaranthus [1]: 1 | Pre-emergence action rating, Chenop. [1]: 1 | Pre-emergence action rating, Digitaria [1]: 3 | Pre-emergence action rating, Echino. [1]: 2 | Pre-emergence action rating, Panicum [1]: 1 | Post-emergence action rating, Abutilon [2]: 2 | Post-emergence action rating, Amaranth [2]: 2 | Post-emergence action rating, Chenop. [2]: 1 | Post-emergence action rating, Digitaria [2]: 2 | Post-emergence action rating, Echino. [2]: 2 | Post-emergence action rating, Ipopur. [2]: 2 | Post-emergence action rating, Panicum [2]: 2 | Post-emergence action rating, Xanth. [2]: 2

CC#CCOCc1nc(C(F)(F)F)ccc1C(=O)c1cnn(C)c1O [A20-C5]
Pre-emergence action rating, Abutilon [1]: 1 | Pre-emergence action rating, Amaranthus [1]: 1 | Pre-emergence action rating, Chenop. [1]: 1 | Pre-emergence action rating, Digitaria [1]: 2 | Pre-emergence action rating, Echino. [1]: 2 | Pre-emergence action rating, Panicum [1]: 1 | Post-emergence action rating, Abutilon [2]: 3 | Post-emergence action rating, Amaranth [2]: 2 | Post-emergence action rating, Chenop. [2]: 1 | Post-emergence action rating, Digitaria [2]: 3 | Post-emergence action rating, Echino. [2]: 4 | Post-emergence action rating, Ipopur. [2]: 3 | Post-emergence action rating, Panicum [2]: 2 | Post-emergence action rating, Xanth. [2]: 3

COCCOCc1nc(C(F)(F)F)ccc1C(=O)C1=C(O)C2CCC(C2)C1=O (centres unmarked) [A10-B52, (H3), 4-Hydroxy-3-[2-(2-methoxyethoxymethyl)-6-trifluoromethylpyridine-3-carbonyl]-bicyclo[3.2.1]oct-3-en-2-one]
Pre-emergence action rating, Abutilon [1]: 1 | Pre-emergence action rating, Amaranthus [1]: 1 | Pre-emergence action rating, Chenop. [1]: 1 | Pre-emergence action rating, Digitaria [1]: 1 | Pre-emergence action rating, Echino. [1]: 1 | Pre-emergence action rating, Panicum [1]: 1 | Post-emergence action rating, Abutilon [2]: 1 | Post-emergence action rating, Amaranth [2]: 2 | Post-emergence action rating, Chenop. [2]: 1 | Post-emergence action rating, Digitaria [2]: 1 | Post-emergence action rating, Echino. [2]: 2 | Post-emergence action rating, Ipopur. [2]: 2 | Post-emergence action rating, Panicum [2]: 1 | Post-emergence action rating, Xanth. [2]: 2

COCCOCc1nc(C(F)(F)F)ccc1C(=O)C1=C(O)C(C)(C)C(=O)C(C)(C)C1=O [A10-B39]
Pre-emergence action rating, Abutilon [1]: 1 | Pre-emergence action rating, Amaranthus [1]: 1 | Pre-emergence action rating, Chenop. [1]: 1 | Pre-emergence action rating, Digitaria [1]: 1 | Pre-emergence action rating, Echino. [1]: 1 | Pre-emergence action rating, Panicum [1]: 1 | Post-emergence action rating, Abutilon [2]: 1 | Post-emergence action rating, Amaranth [2]: 1 | Post-emergence action rating, Chenop. [2]: 1 | Post-emergence action rating, Digitaria [2]: 3 | Post-emergence action rating, Echino. [2]: 3 | Post-emergence action rating, Ipopur. [2]: 2 | Post-emergence action rating, Panicum [2]: 1 | Post-emergence action rating, Xanth. [2]: 2

COCCOCc1nc(C(F)(F)F)ccc1C(=O)c1cnn(C)c1O [A10-C5]
Pre-emergence action rating, Abutilon [1]: 1 | Pre-emergence action rating, Amaranthus [1]: 1 | Pre-emergence action rating, Chenop. [1]: 1 | Pre-emergence action rating, Digitaria [1]: 3 | Pre-emergence action rating, Echino. [1]: 1 | Pre-emergence action rating, Panicum [1]: 2 | Post-emergence action rating, Abutilon [2]: 2 | Post-emergence action rating, Amaranth [2]: 1 | Post-emergence action rating, Chenop. [2]: 1 | Post-emergence action rating, Digitaria [2]: 2 | Post-emergence action rating, Echino. [2]: 2 | Post-emergence action rating, Ipopur. [2]: 2 | Post-emergence action rating, Panicum [2]: 2 | Post-emergence action rating, Xanth. [2]: 2

O=C(OCc1nc(C(F)(F)F)ccc1C(=O)C1=C(O)C2CCC(C2)C1=O)c1ccccc1 (centres unmarked) [A844-B52]
Pre-emergence action rating, Abutilon [1]: 1 | Pre-emergence action rating, Amaranthus [1]: 1 | Pre-emergence action rating, Chenop. [1]: 1 | Pre-emergence action rating, Digitaria [1]: 2 | Pre-emergence action rating, Echino. [1]: 2 | Pre-emergence action rating, Panicum [1]: 1 | Post-emergence action rating, Abutilon [2]: 3 | Post-emergence action rating, Amaranth [2]: 3 | Post-emergence action rating, Chenop. [2]: 1 | Post-emergence action rating, Digitaria [2]: 3 | Post-emergence action rating, Echino. [2]: 4 | Post-emergence action rating, Ipopur. [2]: 3 | Post-emergence action rating, Panicum [2]: 2 | Post-emergence action rating, Xanth. [2]: 3
